# Entries after “also recorded” stand apart in the source; their conditions may differ.
# Columns and labels:
# Type in all cases: physicochemical
# [1] = accelerated stability studies (physical stability, XRPD of stressed samples); conditions: for physical stability in accelerated stability studies: 40° C./75% RH/Open/4 Weeks and 50° C./Closed/4 Weeks
# Protocol: (§1) SSNMR and XRPD indexing studies have proven that Form N-3 is a single phase. No significant weight loss was observed up to about 250° C. in TGA analysis. […] Form N-3 has the tendency to form small primary particles (<10 μm) of the shape of needles or rods.
# Form N-1 undergoes a solid-state transition at about 90° C. as evidenced by hot-stage microscopy studies and converts to Form N-2 at about 90° C. which is confirmed by […] studies. Thermal analysis by DSC (FIG. 8) and TGA show a small exotherm at about 113° C., which is attributed to the solid-state transition to Form N-2, followed by a melting endotherm at about 255 to about 259° C. similar to the melting range for Form N-2.
# (§2) P-1 is a desolvated phase obtained by drying the initial material (potential solvates) crystallized from the reaction mixture. P-1 has never been observed in slurry, and therefore there is no evidence to support assignment of P-1 as a single and neat phase that is crystallized directly from the reaction mixture. […] P-1 can also convert to Form N-2 upon heating at 230° C. in solid state.
# [2] = form conversion in slurry / relative thermodynamic stability of polymorphs
# Protocol: as §1, §2
# A Good Laboratory Practice batch (˜550 g) of Form N-3 has been manufactured successfully by converting P-1 material using a slurry method in acetone at about 50° C. Acetone slurries of Form P-1 spiked at about 50° C. with 1% water still yield Form N-3, but the slurries spiked with 5% and 10% water result in P-3 (solvated) material. […] The hemi sec BuOH solvate, form 0.5SBU-4, converts to form N-2 upon heating. […] Form N-1 also undergoes a solid state transition to Form N-2 upon heating at about 90 to 130° C. In addition, P-1 converts to potential solvate/hydrate forms by slurrying in different solvent systems, e.g., MeOH/EtOAc, DMF/H2O, DMSO/H2O, NMP/H2O at room temperature or at about 50° C.
# [3] = moisture sorption and desorption study; conditions: for hygroscopicity (in words): moisture sorption and desorption study
# Protocol: as §1, §2
compound,measurement,setting,value
"NC(=O)c1nn(-c2cccc(Cl)c2)c2c1CCN(c1ccc(-n3ccccc3=O)cc1)C2=O [Form N-1, 1-(3-chlorophenyl)-7-oxo-6-[4-(2-oxo-1(2H)pyridinyl)phenyl]-4,5,6,7-tetrahydro-1H-pyrazolo[3,4-c]pyridine-3-carboxamide]",physical stability in accelerated stability studies,[1],physically unstable
same,form conversion in slurry,[2]; slurry in acetone,converts to N-3 readily
"NC(=O)c1nn(-c2cccc(Cl)c2)c2c1CCN(c1ccc(-n3ccccc3=O)cc1)C2=O [Form N-2, 1-(3-chlorophenyl)-7-oxo-6-[4-(2-oxo-1(2H)pyridinyl)phenyl]-4,5,6,7-tetrahydro-1H-pyrazolo[3,4-c]pyridine-3-carboxamide]",physical stability in stability study,[1]; 40° C./75% RH/Open for 5 Weeks and 50° C./Closed for 4 Weeks,physically stable
same,moisture adsorption,[3]; at 90% RH at 25° C.,~1.2%
same,hygroscopicity (in words),[3],nonhygroscopic
same,relative thermodynamic stability of polymorphs,[2]; 25° C. to 60° C.,thermodynamically less stable than polymorph N-3
same,form conversion in slurry,[2]; slurry at 25 and 60° C.,converts to N-3
same,form conversion in slurry,[2]; slurry in acetone at RT or about 50° C.,converts to Form N-3 readily
"NC(=O)c1nn(-c2cccc(Cl)c2)c2c1CCN(c1ccc(-n3ccccc3=O)cc1)C2=O [Form N-3, 1-(3-chlorophenyl)-7-oxo-6-[4-(2-oxo-1(2H)pyridinyl)phenyl]-4,5,6,7-tetrahydro-1H-pyrazolo[3,4-c]pyridine-3-carboxamide]",physical stability in accelerated stability studies,[1],physically stable
same,hygroscopicity (in words),[3],nonhygroscopic; also recorded: non-hygroscopic
same,hysteresis in moisture sorption/desorption,[3]; up to 95% RH at 25° C.,no hysteresis was observed
same,moisture sorption,[3]; up to 95% RH at 25° C.,0.4%
same,relative thermodynamic stability of polymorphs,[2]; 25° C. to 60° C.,thermodynamically more stable than polymorphs N-1 and N-2
same,relative thermodynamic stability of polymorphs,"[2]; room temperature to 60° C., from slurry conversions",thermodynamically more stable polymorph
"NC(=O)c1nn(-c2cccc(Cl)c2)c2c1CCN(c1ccc(-n3ccccc3=O)cc1)C2=O [Form P-1, 1-(3-chlorophenyl)-7-oxo-6-[4-(2-oxo-1(2H)pyridinyl)phenyl]-4,5,6,7-tetrahydro-1H-pyrazolo[3,4-c]pyridine-3-carboxamide]",physical stability in accelerated stability studies (XRPD assay),"[1]; stressed for 3 weeks, 40° C./75% RH/Open",physically unstable
same,hygroscopicity (in words),[3],hygroscopic
same,weight gain on adsorption,[3]; to 90% RH,~16%
same,form conversion in solvents,"[2]; in solvents (e.g., acetone)",converts to Form N-3
same,form conversion in slurry,"[2]; slurry in different solvents (e.g., acetone, ACN, DMSO/MTBE) at about 50° C.",converts to Form N-3

# Reference: patent publication US7388096B2, “Crystalline forms of a factor Xa inhibitor” (Bristol-Myers Squibb Company, priority 2004, dated 2008)
